Consider six compounds from patent US20050233413A1, “Neuroprotective polypeptides and methods of use” (priority 2002, published 2005).

The subject of assay [1] is F11 cells transfected with V642I-APP, NL-APP, M146L-PS1 or N141I-PS2 cDNA. In kind it is cell-based, rat/mouse hybrid. From the text:
(§1) F11 cells, the hybrid of a rat embryonic-day-13 primary cultured primary neuron and a mouse neuroblastoma cell, are one of the best models for primary cultured neurons as they carry representative characteristics of primary neurons, such as generation of action potentials without differentiation by NGF [22]. They have been used in various studies of is neuronal functions. Using these cells, the underlying mechanisms for cytotoxicity by V642I-APP have well been analyzed. Cytotoxicity by V642 mutants of APP has also been confirmed in multiple different systems. F11 cells were grown in Ham's F-12 (GibcoBRL, Gaithersburg, Md.) plus 18% fetal bovine serum (FBS; Hyclone, Logan, Utah) and antibiotics, as described previously. F11 cells (7×10^4 cell/well in a 6-well plate cultured in Ham's F-12 plus 18% FBS for 12-16 hr) were transfected with plasmids encoding FAD genes by lipofection [FAD cDNA 2 μg, LipofectAMINE 4 μl, PLUS reagent 8 μl (GibcoBRL)] in the absence of serum for 3 hr, and were incubated with Ham's F-12 plus 18% FBS for 2 hr. Then, culture media were changed to Ham's F-12 plus 10% FBS with or without HN peptides, and cells were cultured for an additional 67 hr. Seventy-two hr after transfection, cell mortality was measured by Trypan blue exclusion assay, performed as follows. Cells were suspended by pipetting gently, and 50 μl of 0.4% (finally 0.08%) Trypan blue solution (Sigma, St Louis, Mo.) was mixed with 200 μl of the cell suspension at room temperature. Stained cells were counted within 3 min after the mixture with Trypan blue solution.

Assay [2] deals with Aβ and four FAD genes (V642I-APP, NL-APP, M146L-PS1, and N141I-PS2). In kind it is cell-based. The conditions noted are these: for Full protection (minimal concentration that exerted full cytoprotection): Table 5, marked *.
From the text: as §1
(§2) The primary culture of mouse cortical neurons was performed in poly-L-lysine-coated 24-well plates or 96-well plates (Sumitomo Bakelite, Akita, Japan), in the absence of serum and the presence of N2 supplement, as described previously. The purity of neurons by this method was >98%. Prepared neurons (for neurons seeded in 96-well plates: 2.5×10^4 or 5×10^4 cells/well, 100 μl culture medium/well; for neurons seeded in 24-well plates: 1.25×10^5 cells/well, 250 μl culture medium/well) were preincubated with or without 10 μM (in case for the experiment with 10 μM HN) synthetic HN for 16 hr, and treated with 25 μM Aβ in the presence or absence of 10 μM HN for 72 hr, respectively. As primary neurons were vulnerable to transient dryness during medium exchange, we treated neurons with 25 μM Aβ as follows. First, a half volume (50 μl for neurons in 96-well plates; 125 μl for neurons in 24-well plates) of old medium was discarded. Then, the same volume (50 μl for neurons in 96-well plates; 125 μl for neurons in 24-well plates) of prewarned fresh medium containing 10 μM HN and 50 μM Aβ (Aβ was directly resolved) was added to the culture. The Aβ peptides used at 25 μM to induce neurotoxicity formed aggregation in the medium during the cell culture at 37° C. for 72 hr. as described. The WST-8 cell viability assay was performed, using Cell Counting Kit-8 (Wako Pure Chemical Industries, Osaka, Japan), as described previously.
(§3) Calcein assay was performed with Calcein-AM {3′,6′-di-(O-acetyl)-2′,7′-bis [N,N-bis(carboxymethyl)aminomethyl] fluorescein, tetraacetoxymethyl ester; Dojindo}, as described previously. These assays were simultaneously performed in the experiments with neurons seeded in 96-well plates, as follows. Seventy-two hours after Aβ treatment, cells were added with the mixture of 10 μl WST-8 solution and 1 μl of 600 μM Calcein-AM. After 2 hr incubation in a CO2 incubator at 37° C., WST-8 absorbance was measured as OD450. After exchanging the medium to PBS to lower the background, Calcein-specific fluorescence (ex=485 nm, em=535 nm) was observed by fluorescence microscopy or measured by a spectrofluorometer (Wallac1420 ARVOsx Multi Label Counter). […]

In assay [3] the test system is V642I-APP, NL-APP, M146L-PS1, N141I-PS2 holoprotein expression in F11 cells. The assay is described as follows: Immunoblot analysis of transfected FAD gene expression. In kind it is cell-based, rat/mouse hybrid. The conditions noted are these: F11 cells treated with peptide. Here is the method: Immunoblot analysis was performed as described. For the analysis of transfected FAD gene expression, lysates (20 μg/lane) from cells transfected with each FAD gene (V642I-APP, NL-APP, M146L-PS1, N141I-PS2) were submitted to SDS-PAGE and were electrically blotted to a PVDF sheet. After blocking, the sheet was soaked with antibodies [for APP mutants: 5 μg/ml 22C11 (CHEMICON, Temecula, Calif.); for PS1 mutant: 1/2000 of anti-PS1 N-terminus antibody (CHEMICON) for PS2 mutant: 1/500 of anti-PS2 antibody (Cell Signaling Technology, Beverly, Mass.)] and then with HRP-labeled secondary antibodies. The antigenic bands were visualized by ECL (Amersham Pharmacia Biotech, Uppsala, Sweden).

Assay [4] relates to primary cultured neurons treated with 25 μM Aβ1-43. In kind it is cell-based. The conditions noted are these: for concentration of full neuroprotection against Aβ1-43: 25 μM Aβ1-43; for Calcein fluorescence, percentage of neurons without treatment: 72 hours, means±S.D. Here is the method:
(§4) In one assay, transfection with V642I-APP causes cell death in F11 neuronal hybrid cells. In the other, treatment with Aβ peptides causes cell death in primary cultured cortical neurons.
as §2
Calcein assay was performed with Calcein-AM {3′,6′-di-(O-acetyl)-2′,7′-bis [N,N-bis(carboxymethyl)aminomethyl] fluorescein, tetraacetoxymethyl ester; Dojindo}, as described previously. These assays were simultaneously performed in the experiments with neurons seeded in 96-well plates, as follows. Seventy-two hours after Aβ treatment, cells were added with the mixture of 10 μl WST-8 solution and 1 μl of 600 μM Calcein-AM. After 2 hr incubation in a CO2 incubator at 37° C., WST-8 absorbance was measured as OD450. After exchanging the medium to PBS to lower the background, Calcein-specific fluorescence (ex=485 nm, em=535 nm) was observed by fluorescence microscopy or measured by a spectrofluorometer (Wallac1420 ARVOsx Multi Label Counter). Most cell viability data using Calcein assay and WST-8 assay were obtained from neurons seeded at 5×10^4 cells/well in 96-well plates (high-density neurons) and confirmed by both assays with the cells seeded at 2.5×10^4 cells/well (low-density neurons).
Some experiments for Calcein assay were performed with neurons seeded in 24-well plates. […] In most experiments using primary neurons, four independent experiments were performed and the means? S. D. of the results were discussed.

Assay [5] deals with F11 cells transfected with V642I-APP cDNA. Kind of assay: F11 cell death by V642I-APP transfection (Trypan blue exclusion). In kind it is cell-based. To be noted: 72 hr after transfection.
From the text: as §4, §1

The subject of assay [6] is Aβ and V642I-APP. In kind it is cell-based. The conditions noted are these: Table 5, marked **.
From the text: as §1, §2, §3

pIC50: −log10 of the molar value. Like-named read-outs stand apart in the source and are kept apart here. Where a SMILES comes first, the peptide text is derived from it. Where no end group is shown, it is not given here. [ ]: non-standard residue; d: D form. pS = N[C@@H](COP(=O)(O)O)C(=O)O

`CC[C@H](C)[C@H](NC(=O)[C@H](CCC(=O)O)NC(=O)[C@@H](CO)NC(=O)[C@@H](NC(=O)[C@H](CC(C)C)NC(=O)[C@H](CC(C)C)NC(=O)[C@H](CC(C)C)NC(=O)[C@H](CC(C)C)NC(=O)[C@H](CS)NC(=O)[C@H](CO)NC(=O)[C@H](C)NC(=O)CNC(=O)[C@H](C)NC(=O)[C@@H]1CCCN1)[C@@H](C)O)C(=O)N[C@@H](CC(=O)O)C(=O)N[C@@H](CC(C)C)C(=O)N1CCC[C@H]1C(=O)O` [AGA-(D-Ser14)HN17, PAGASCLLLLT(D-Ser)EIDLP] (H-PAGASCLLLLT[dS]EIDLP-OH; N-terminus and C-terminus assumed): the “concentration of full cytoprotection against FAD genes” value in assay [1] (each of V642I-APP) is 100 pM. In addition, the pIC50 in assay [1] (each of V642I-APP, read-out: IC50 of suppression of neuronal cell death by FAD genes) was ~11.00. Besides, in assay [2], the negative-log IC50 (pIC50) is 10.00 to 11.00, the “action potency compared with another peptide (in words)” value is recorded as “as potent as AGAD-Ser^14)HN” and the “Full protection (minimal concentration that exerted full cytoprotection)” value (from here on “Full protection”) was “˜100 pM”. Also, the “CMV-promoter-driven expression of V642I-APP, NL-APP, M146L-PS1, or N141I-PS2 holoprotein” value (“CMV-promoter-driven expression” below) in assay [3] is recorded as “did not suppress”.

Turning to `CC[C@H](C)[C@H](NC(=O)[C@H](CCC(=O)O)NC(=O)[C@@H](CO)NC(=O)[C@@H](NC(=O)[C@H](CC(C)C)NC(=O)[C@H](CC(C)C)NC(=O)[C@H](CC(C)C)NC(=O)[C@H](CC(C)C)NC(=O)[C@H](CS)NC(=O)[C@H](CO)NC(=O)[C@H](C)NC(=O)CNC(=O)[C@H](C)NC(=O)[C@@H]1CCCN1C(=O)[C@H](C)NC(=O)[C@@H](N)CCSC)[C@@H](C)O)C(=O)N[C@@H](CC(=O)O)C(=O)N[C@@H](CC(C)C)C(=O)N1CCC[C@H]1C(=O)N[C@H](C(=O)N[C@@H](CCCCN)C(=O)N[C@@H](CCCNC(=N)N)C(=O)N[C@@H](CCCNC(=N)N)C(=O)N[C@@H](C)C(=O)O)C(C)C` [AGA-(D-Ser14)HN, MAPAGASCLLLLT(D-Ser)EIDLPVKRRA] (H-MAPAGASCLLLLT[dS]EIDLPVKRRA-OH; N-terminus and C-terminus assumed), in assay [2], the “concentration of full cytoprotection” value amounted to 100 pM and the “Full protection” value lay within 100 to 300 pM. Also, the “CMV-promoter-driven expression” value in assay [3] is reported as “not affected”.

Turning to “EFLIVIKSMAPAGASCLLLLTGEIDLPVKRRA [EF-AGA-HNG]”, in assay [4], the pIC50 was ~12.00 and the “concentration of full neuroprotection against Aβ1-43” value is reported as 10 pM. In addition, the “concentration of full cytoprotection against FAD genes” value in assay [1] (each of V642I-APP) turned out to be 10 pM. For the same compound, the “Full protection” value in assay [2] is reported as “˜10 pM”. Besides, the “CMV-promoter-driven expression” value in assay [3] is “little or only marginal alteration”.

As to “MAPRGF(D-Ser)CLLLLT(D-Ser)EIDLPVKRRA (MAPRGF[dS]CLLLLT[dS]EIDLPVKRRA) [D-Ser7/14 HN]”, in assay [1] (V642I-APP), the “cytoprotective action against FAD genes (in words)” value is “virtually identical to those of (D-Ser^14)HN”. Moreover, the “Full protection” value in assay [2] was “˜10 nM”.

Turning to “MAPRGFSCLLLLT(D-S)EIDLPVKRRA [D-Ser14 HN]”, the “concentration of full neuroprotection against Aβ1-43” value in assay [4] was 1000 to 10000 pM. Moreover, the “potency of neuroprotection against Aβ relative to HN” value in assay [4] (times as high as / higher than authentic HN) is 100-1000 times. Besides, in assay [1] (V642I-APP), the “concentration of full suppression of cell death by FAD mutants” value is 10 nM and the “cytoprotective action against FAD genes (in words)” value was “virtually identical to that of HNG”. In addition, the “Full protection” value in assay [2] is “˜10 nM”. Further, in assay [3], the “CMV-promoter-driven expression” value is on record as “did not suppress”.

Turning to “MAPRGFSCLLLLT(p-S)EIDLPVKRRA (MAPRGFSCLLLLT[pS]EIDLPVKRRA) [P-S14 HN, p-S is phosphorylated L-Ser]”, the “Calcein fluorescence, percentage of neurons without treatment” value in assay [4] (25 μM Aβ1-43 + 10 pM peptide, Aβ alone 8.9 ± 0.8) was 8.6 ± 0.3%; in assay [4] (25 μM Aβ1-43 + 100 pM peptide) it was 8.6 ± 0.4%; in assay [4] (25 μM Aβ1-43 + 1 nM peptide), 8.9 ± 0.1%; in assay [4] (25 μM Aβ1-43 + 10 nM peptide), 8.6 ± 0.3%; in assay [4] (25 μM Aβ1-43 + 100 nM peptide), 8.6 ± 0.1%; in assay [4] (25 μM Aβ1-43 + 1 μM peptide), 85.8 ± 4.1 %. Also, the “Calcein fluorescence, percentage of neurons without treatment” value in assay [4] (25 μM Aβ1-43 + 10 μM peptide) is recorded as 104.1 ± 1.7 %. In addition, the “% dead cells of total cells” value in assay [5] (V642I-APP + 10 pM peptide, means±S.D., V642I-APP alone 52.9 ± 1.1) was 56.5 ± 4.1%; in assay [5] (V642I-APP + 100 pM peptide) it was 56.3 ± 2.7%; in assay [5] (V642I-APP + 1 nM peptide), 54.3 ± 1.2%; in assay [5] (V642I-APP + 10 nM peptide), 53.4 ± 2.0%; in assay [5] (V642I-APP + 100 nM peptide) it was 41.8 ± 1.8 %. Further, the “Full protection” value in assay [6] is recorded as “˜10 μM”.
